What was measured:
corn [1] = test: Test C preemergence; assay type: in vivo, Zea mays; details: 0 to 100 scale (0 no effect, 100 complete control)
Summary of the method: (§1)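 Seeds sown in loam soil–sand blend received a directed preemergence soil spray of test chemical in non-phytotoxic solvent with surfactant; postemergence plants (2–10 cm, one- to two-leaf stage) were sprayed with the same formulation. Greenhouse-held 10 days, then visually rated for injury versus untreated controls, 0 (no effect) to 100 (complete control).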

barnyardgrass [2] = test: Test C preemergence; assay type: in vivo, Echinochloa crusgalli; details: 0 to 100 scale (0 no effect, 100 complete control)
Summary of the method: as §1

ryegrass, Italian [3] = test: Test C postemergence; assay type: in vivo, Lolium multiflorum; details: 10 days
Summary of the method: as §1

wheat [4] = test: Test C postemergence; assay type: in vivo, Triticum aestivum; details: 10 days
Summary of the method: as §1

oat, wild [5] = test: Test C preemergence; assay type: in vivo, Avena fatua; details: 0 to 100 scale (0 no effect, 100 complete control)
Summary of the method: as §1

pigweed, palmer [6] = test: Test C postemergence; assay type: in vivo, Amaranthus palmeri; details: 10 days
Summary of the method: as §1

blackgrass [7] = test: Test C postemergence; assay type: in vivo, Alopecurus myosuroides; details: 10 days
Summary of the method: as §1

corn [8] = test: Test C postemergence; assay type: in vivo, Zea mays; details: 10 days
Summary of the method: as §1

barnyardgrass [9] = test: Test C postemergence; assay type: in vivo, Echinochloa crusgalli; details: 10 days
Summary of the method: as §1

kochia [10] = test: Test C preemergence; assay type: in vivo, Bassia scoparia; details: 0 to 100 scale (0 no effect, 100 complete control)
Summary of the method: as §1

kochia [11] = test: Test C postemergence; assay type: in vivo, Bassia scoparia; details: 10 days
Summary of the method: as §1

ragweed [12] = test: Test C postemergence; assay type: in vivo, Ambrosia artemisiifolia; details: 10 days
Summary of the method: as §1

ducksalad = test: Test D flooded paddy test; assay type: in vivo, Heteranthera limosa; details: 250 g ai/ha, applied to paddy water, visual rating after 13 to 14 days, scale 0 to 100 (0 no effect, 100 complete control)
Summary of the method: (§2)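 Plants at the 2-leaf stage were grown in pots flooded to 3 cm, and compound was applied directly into the paddy water, with depth kept throughout. After 13–14 days in a greenhouse, injury was rated visually against untreated controls on a 0–100 scale (100 = complete control); a dash means not tested.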

rice = test: Test D flooded paddy test; assay type: in vivo, Oryza sativa; details: 250 g ai/ha, applied to paddy water, visual rating after 13 to 14 days, scale 0 to 100 (0 no effect, 100 complete control)
Summary of the method: as §2

pigweed, palmer [13] = test: Test C preemergence; assay type: in vivo, Amaranthus palmeri; details: 0 to 100 scale (0 no effect, 100 complete control)
Summary of the method: as §1

green foxtail [14] = test: Test C postemergence; assay type: in vivo, Setaria viridis; details: 10 days
Summary of the method: as §1

galium = test: Test C postemergence; assay type: in vivo, Galium aparine; details: 125 g ai/ha, postemergence, 10 days; 0 to 100 scale, 0 no effect, 100 complete control
Summary of the method: as §1

ryegrass, Italian [15] = test: Test C preemergence; assay type: in vivo, Lolium multiflorum; details: 0 to 100 scale (0 no effect, 100 complete control)
Summary of the method: as §1

green foxtail [16] = test: Test C preemergence; assay type: in vivo, Setaria viridis; details: 0 to 100 scale (0 no effect, 100 complete control)
Summary of the method: as §1

sedge, umbrella = test: Test D flooded paddy test; assay type: in vivo, Cyperus difformis; details: 250 g ai/ha, applied to paddy water, visual rating after 13 to 14 days, scale 0 to 100 (0 no effect, 100 complete control)
Summary of the method: as §2

barnyardgrass [17] = test: Test D flooded paddy test; assay type: in vivo, Echinochloa crus-galli; details: 250 g ai/ha, applied to paddy water, visual rating after 13 to 14 days, scale 0 to 100 (0 no effect, 100 complete control)
Summary of the method: as §2

soybean [18] = test: Test C postemergence; assay type: in vivo, Glycine max; details: 10 days
Summary of the method: as §1

blackgrass [19] = test: Test C preemergence; assay type: in vivo, Alopecurus myosuroides; details: 0 to 100 scale (0 no effect, 100 complete control)
Summary of the method: as §1

oat, wild [20] = test: Test C postemergence; assay type: in vivo, Avena fatua; details: 10 days
Summary of the method: as §1

ragweed [21] = test: Test C preemergence; assay type: in vivo, Ambrosia artemisiifolia; details: 0 to 100 scale (0 no effect, 100 complete control)
Summary of the method: as §1

soybean [22] = test: Test C preemergence; assay type: in vivo, Glycine max; details: 0 to 100 scale (0 no effect, 100 complete control)
Summary of the method: as §1

wheat [23] = test: Test C preemergence; assay type: in vivo, Triticum aestivum; details: 0 to 100 scale (0 no effect, 100 complete control)
Summary of the method: as §1

horseweed = test: Test C postemergence; assay type: in vivo, Erigeron canadensis; details: 10 days
Summary of the method: as §1

[24] = Preemergence, 500 g ai/ha, visual rating after 10 days
[25] = Test C, preemergence, 125 g ai/ha
[26] = 125 g ai/ha, postemergence, 0 to 100 scale, 0 no effect, 100 complete control
[27] = Postemergence, 500 g ai/ha, visual 0 to 100 scale (0 no effect, 100 complete control)

Compound: Cc1cc(-n2cnc(C(C)C)n2)cc(C(=O)N2C[C@H](C)Oc3c(Cl)cccc32)c1F [Compound 223]
- Plant response rating, Corn (corn [1]; [24]): 40
- Corn plant response rating (corn [1]; [25]): 0
- Plant response rating, Barnyardgrass (barnyardgrass [2]; [24]): 100
- Barnyardgrass plant response rating (barnyardgrass [2]; [25]): 90
- Plant response rating, Ryegrass, Italian (ryegrass, Italian [3]; [26]): 50
- Plant response rating, Ryegrass, Italian (ryegrass, Italian [3]; [27]): 90
- Plant response rating, Wheat (wheat [4]; [26]): 10
- Plant response rating, Wheat (wheat [4]; [27]): 30
- Plant response rating, Oat, Wild (oat, wild [5]; [24]): 70
- Oat, Wild plant response rating (oat, wild [5]; [25]): 50
- Plant response rating, Pigweed, Palmer (pigweed, palmer [6]; [26]): 80
- Plant response rating, Pigweed, Palmer (pigweed, palmer [6]; [27]): 90
- Plant response rating, Blackgrass (blackgrass [7]; [26]): 30
- Plant response rating, Blackgrass (blackgrass [7]; [27]): 70
- Plant response rating, Corn (corn [8]; [26]): 20
- Plant response rating, Corn (corn [8]; [27]): 80
- Plant response rating, Barnyardgrass (barnyardgrass [9]; [26]): 20
- Plant response rating, Barnyardgrass (barnyardgrass [9]; [27]): 40
- Plant response rating, Kochia (kochia [10]; [24]): 80
- Kochia plant response rating (kochia [10]; [25]): 60
- Plant response rating, Kochia (kochia [11]; [26]): 90
- Plant response rating, Kochia (kochia [11]; [27]): 90
- Plant response rating, Ragweed (ragweed [12]; [26]): 0
- Plant response rating, Ragweed (ragweed [12]; [27]): 10
- Plant response rating, Ducksalad (Flood) (ducksalad): 80
- Plant response rating, Rice (Flood) (rice): 10
- Plant response rating, Pigweed, Palmer (pigweed, palmer [13]; [24]): 100
- Pigweed, Palmer plant response rating (pigweed, palmer [13]; [25]): 100
- Plant response rating, Foxtail, Green (green foxtail [14]; [26]): 30
- Plant response rating, Foxtail, Green (green foxtail [14]; [27]): 60
- Plant response rating, Galium (galium): 100
- Plant response rating, Ryegrass, Italian (ryegrass, Italian [15]; [24]): 90
- Ryegrass, Italian plant response rating (ryegrass, Italian [15]; [25]): 80
- Plant response rating, Foxtail, Green (green foxtail [16]; [24]): 100
- Foxtail, Green plant response rating (green foxtail [16]; [25]): 100
- Plant response rating, Sedge, Umbrella (Flood) (sedge, umbrella): 95
- Plant response rating, Barnyardgrass (Flood) (barnyardgrass [17]): 10
- Plant response rating, Soybean (soybean [18]; [26]): 100
- Plant response rating, Soybean (soybean [18]; [27]): 100
- Plant response rating, Blackgrass (blackgrass [19]; [24]): 90
- Blackgrass plant response rating (blackgrass [19]; [25]): 40
- Plant response rating, Oat, Wild (oat, wild [20]; [26]): 10
- Plant response rating, Oat, Wild (oat, wild [20]; [27]): 30
- Plant response rating, Ragweed (ragweed [21]; [24]): 40
- Ragweed plant response rating (ragweed [21]; [25]): 50
- Plant response rating, Soybean (soybean [22]; [24]): 70
- Soybean plant response rating (soybean [22]; [25]): 10
- Plant response rating, Wheat (wheat [23]; [24]): 90
- Wheat plant response rating (wheat [23]; [25]): 20
- Plant response rating, Horseweed (horseweed; [26]): 20
- Plant response rating, Horseweed (horseweed; [27]): 30

— US20260262643A1, “HERBICIDAL BENZOXAZINES” (FMC CORPORATION, priority 2022, published 2026)
